The subject of this assay is BDF1 mice, P388 leukemia ip, median survival T/C. Briefly: NCI In Vivo Anticancer Drug Screen. Data for tumor model P388 Leukemia (intraperitoneal) in B6D2F1 (BDF1) mice. The note with it: endpoint: median survival time, higher = longer survival. Put shortly:
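In tumour-bearing mice, survival after compound treatment is set against the vehicle group and given as a quotient.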

Setting [1] is: dose: 6.25 mg/kg/injection, schedule: Q01DX009 (ip), vehicle: water.
Where [2] appears, read: dose: 12.5 mg/kg/injection, schedule: Q01DX009 (ip), vehicle: water.
Where [3] appears, read: dose: 25.0 mg/kg/injection, schedule: Q01DX009 (ip), vehicle: water.
[4] abbreviates: dose: 25.0 mg/kg/injection, schedule: Q04DX003 (ip), vehicle: water.
[5] abbreviates: dose: 50.0 mg/kg/injection, schedule: Q01DX009 (ip), vehicle: water.
[6] abbreviates: dose: 50.0 mg/kg/injection, schedule: Q04DX003 (ip), vehicle: water.
Where [7] appears, read: dose: 100.0 mg/kg/injection, schedule: Q01DX009 (ip), vehicle: water.
The mark [8] stands for this setting: dose: 100.0 mg/kg/injection, schedule: Q04DX003 (ip), vehicle: water.
Setting [9] is: dose: 200.0 mg/kg/injection, schedule: Q01DX009 (ip), vehicle: water.
Where [10] appears, read: dose: 100.0 mg/kg/injection, schedule: Q01DX009 (ip), vehicle: saline.
Setting [11] is: dose: 200.0 mg/kg/injection, schedule: Q01DX009 (ip), vehicle: saline.
The mark [12] stands for this setting: dose: 5.0 mg/kg/injection, schedule: Q01DX009 (ip), vehicle: saline.
The mark [13] stands for this setting: dose: 10.0 mg/kg/injection, schedule: Q01DX009 (ip), vehicle: saline.
Where [14] appears, read: dose: 100.0 mg/kg/injection, schedule: Q04DX003 (ip), vehicle: saline with Tween-80.
[15] abbreviates: dose: 200.0 mg/kg/injection, schedule: Q04DX003 (ip), vehicle: saline with Tween-80.
The mark [16] stands for this setting: dose: 400.0 mg/kg/injection, schedule: Q04DX003 (ip), vehicle: saline with Tween-80.
Setting [17] is: dose: 50.0 mg/kg/injection, schedule: Q01DX009 (ip), vehicle: saline with Tween-80.
Where [18] appears, read: dose: 100.0 mg/kg/injection, schedule: Q01DX009 (ip), vehicle: saline with Tween-80.
[19] abbreviates: dose: 200.0 mg/kg/injection, schedule: Q01DX009 (ip), vehicle: saline with Tween-80.

Each structure is given as a SMILES string. “And” between values parts separate entries of the source, which are not always exact repeats. Equal values may be shown once. Inconclusive results and toxic doses are left out. Residues, ends and D or L forms follow the SMILES beside them.

Regarding `O=C(N=c1cc(-c2ccc(Cl)cc2)ss1)C(Cc1ccccc1)N1C(=O)c2ccccc2C1=O` (stereo not given), the T/C is 101 % of control under setting [1]; 110 % of control (dose: 6.25 mg/kg/injection, schedule: Q04DX003 (ip), vehicle: water); 104 % of control under setting [2]; 100 % of control (dose: 12.5 mg/kg/injection, schedule: Q04DX003 (ip), vehicle: water); 108 % of control under setting [3]; 110 % of control under setting [4]. Besides, the T/C is, setting by setting: under setting [5], 104 % of control; under setting [6], 104 % of control; under setting [7], 108 % of control; under setting [8], 107 % of control; under setting [9], 108 % of control.
Consider `CS(=O)(=O)n1c(CBr)nc2ccccc21`, for which the T/C (dose: 25.0 mg/kg/injection, schedule: Q04DX003 (ip), vehicle: saline sonified) is 109 % of control; the T/C (dose: 50.0 mg/kg/injection, schedule: Q04DX003 (ip), vehicle: saline sonified) is 118 % of control; the T/C (dose: 100.0 mg/kg/injection, schedule: Q04DX003 (ip), vehicle: saline sonified) is 122 % of control.
Take `O=c1oc2c3ccccc3c3ccccc3c2o1`: the T/C is 117 % of control (dose: 25.0 mg/kg/injection, schedule: Q01DX009 (ip), vehicle: Klucel (hydroxypropylcellulose) (HPC)); 115 % of control (dose: 50.0 mg/kg/injection, schedule: Q01DX009 (ip), vehicle: Klucel (hydroxypropylcellulose) (HPC)); 114 % of control (dose: 100.0 mg/kg/injection, schedule: Q01DX009 (ip), vehicle: Klucel (hydroxypropylcellulose) (HPC)).
With `Brc1cnn2c1NCC2`, the T/C is 100 % of control under setting [2]; 93 % of control under setting [3]; 109 % of control and 114 % of control under setting [4]; 98 % of control under setting [5]; 95 % of control and 118 % of control under setting [6]; 97 % of control under setting [7]. For the same compound, the T/C is 95 % of control and 114 % of control under setting [8]; 93 % of control under setting [9]; 93 % of control (dose: 200.0 mg/kg/injection, schedule: Q04DX003 (ip), vehicle: water).
With `CCN(CCNc1ccc(C)c2sc3cc(Cl)ccc3c(=O)c12)CC(C)O` (stereo not given), the T/C reads like this: under setting [10], 109 % of control; under setting [11], 104 % of control.
For the compound `CN(C)c1ccc2nc3ccc(=[N+](C)C)cc-3sc2c1`, the T/C is 113 % of control (dose: 2.5 mg/kg/injection, schedule: Q01DX009 (ip), vehicle: saline); 104 % of control under setting [12]; 110 % of control (dose: 7.2 mg/kg/injection, schedule: Q04DX003 (ip), vehicle: saline); 122 % of control under setting [13]; 110 % of control (dose: 10.0 mg/kg/injection, schedule: Q04DX003 (ip), vehicle: saline); 100 % of control (dose: 11.5 mg/kg/injection, schedule: Q04DX003 (ip), vehicle: saline). In addition, the T/C runs as follows: (dose: 12.5 mg/kg/injection, schedule: Q01DX009 (ip), vehicle: saline) 100 % of control; (dose: 16.5 mg/kg/injection, schedule: Q01DX009 (ip), vehicle: saline) 95 % of control and 100 % of control; (dose: 20.0 mg/kg/injection, schedule: Q01DX009 (ip), vehicle: saline) 104 % of control; (dose: 25.0 mg/kg/injection, schedule: Q01DX009 (ip), vehicle: saline) 100 % of control and 104 % of control; (dose: 37.5 mg/kg/injection, schedule: Q01DX009 (ip), vehicle: saline) 95 % of control; (dose: 37.5 mg/kg/injection, schedule: Q04DX003 (ip), vehicle: saline) 100 % of control.
With `CC1NC(=O)C2CCCN2C(=O)C2CCCN2C(=O)C(C(C)C)NC(=O)C(Cc2ccccc2)NC(=O)C(Cc2ccccc2)NC(=O)C2CCCN2C(=O)C2CCCN2C(=O)C(Cc2ccccc2)NC(=O)C(Cc2ccccc2)NC1=O` (stereo not given) (cyclo(AFFPPFFVPP); configuration not given here), the T/C is 101 % of control (dose: 0.5 mg/kg/injection, schedule: Q01DX009 (ip), vehicle: saline); 104 % of control (dose: 1.0 mg/kg/injection, schedule: Q01DX009 (ip), vehicle: saline); 104 % of control (dose: 2.0 mg/kg/injection, schedule: Q01DX009 (ip), vehicle: saline).
With `C[N+](C)(C)Cc1ccccc1/C(=N\O)c1ccccc1`, the T/C reads like this: under setting [12], 109 % of control; under setting [13], 91 % of control.
Take `O=[N+]([O-])c1ccc(N/N=C2/C3CCC(C3)C2C(O)(C(F)(F)F)C(F)(F)F)c([N+](=O)[O-])c1` (stereo not given): the T/C reads like this: under setting [14], 90 % of control; under setting [15], 90 % of control; under setting [16], 95 % of control.
Regarding `COc1ccc(-n2c(=O)c(N=Nc3ccccc3OC)c(O)n(-c3ccccc3C)c2=S)cc1`, the T/C was 111 % of control (dose: 100.0 mg/kg/injection, schedule: Q01DX001 (ip), vehicle: Klucel (hydroxypropylcellulose) (HPC)); 100 % of control (dose: 200.0 mg/kg/injection, schedule: Q01DX001 (ip), vehicle: Klucel (hydroxypropylcellulose) (HPC)); 88 % of control (dose: 400.0 mg/kg/injection, schedule: Q01DX001 (ip), vehicle: Klucel (hydroxypropylcellulose) (HPC)).
Regarding `Cc1c2ccnc(-c3ccccc3)c2cc2c1[nH]c1ccccc12`, the T/C is 102 % of control under setting [17], 100 % of control under setting [18] and 102 % of control under setting [19].
Turning to `O=C1/C(=C/c2ccc(Cl)cc2)SC(=S)N1CCCN1CCOCC1`, the T/C is 91 % of control under setting [17], 88 % of control under setting [18] and 91 % of control under setting [19].
In the case of `CC(=O)Nc1ccc(Cl)cc1C(=O)O`, the T/C was 91 % of control (dose: 100.0 mg/kg/injection, schedule: Q04DX003 (ip), vehicle: Klucel (hydroxypropylcellulose) (HPC)); 95 % of control (dose: 200.0 mg/kg/injection, schedule: Q04DX003 (ip), vehicle: Klucel (hydroxypropylcellulose) (HPC)); 100 % of control (dose: 400.0 mg/kg/injection, schedule: Q04DX003 (ip), vehicle: Klucel (hydroxypropylcellulose) (HPC)).
On to `COc1ccc2c(c1)CCC1C2CCC2(C)C(=O)OC(=O)C12` (stereo not given), for which the T/C was 91 % of control (dose: 87.5 mg/kg/injection, schedule: Q01DX009 (sc), vehicle: steriod suspending solution); 100 % of control (dose: 100.0 mg/kg/injection, schedule: Q04DX003 (sc), vehicle: steriod suspending solution); 100 % of control (dose: 175.0 mg/kg/injection, schedule: Q01DX009 (sc), vehicle: steriod suspending solution); 109 % of control (dose: 200.0 mg/kg/injection, schedule: Q04DX003 (sc), vehicle: steriod suspending solution); 95 % of control (dose: 350.0 mg/kg/injection, schedule: Q01DX009 (sc), vehicle: steriod suspending solution); 95 % of control (dose: 400.0 mg/kg/injection, schedule: Q04DX003 (sc), vehicle: steriod suspending solution).
In the case of `C#CCOC(=O)NCC`, the T/C reads like this: under setting [10], 100 % of control; (dose: 100.0 mg/kg/injection, schedule: Q04DX003 (ip), vehicle: saline) 100 % of control; under setting [11], 115 % of control; (dose: 200.0 mg/kg/injection, schedule: Q04DX003 (ip), vehicle: saline) 100 % of control; (dose: 400.0 mg/kg/injection, schedule: Q01DX009 (ip), vehicle: saline) 115 % of control; (dose: 400.0 mg/kg/injection, schedule: Q04DX003 (ip), vehicle: saline) 104 % of control.
In the case of `O=CN1CCCC1C(=O)O` (stereo not given), the T/C is 103 % of control under setting [1], 99 % of control under setting [2], 96 % of control under setting [3] and 94 % of control under setting [5].
Take `CCOC(=O)CCc1nc(C(=O)OCC)c(C)c(=O)[nH]1`: the T/C was 107 % of control under setting [14], 103 % of control under setting [15] and 100 % of control under setting [16].
For the compound `CC[C@@]1(O)C[C@H](OC2CC(N(C)C)C(O)C(C)O2)c2c(cc3c(c2O)C(=O)c2c(O)ccc(O)c2C3=O)[C@H]1C(=O)OC` (stereo not given in full), under “dose: 20.0 mg/kg/injection, schedule: Q04DX003 (ip), vehicle: other”, the T/C was 157 % of control.

For the origin of these results see PubChem BioAssay AID328 (DTP/NCI, 2004).
